Results reported in patent US11655235B2, “Pyrrolidine and piperidine compounds” (YUHAN CORPORATION, priority 2019, dated 2023).

How the values were obtained:
Recombinant human FAP = biological target: T1, Recombinant human FAP (Homo sapiens, UniProt Q12884); experiment: FAP inhibition, fluorogenic substrate Z-Gly-Pro-AMC; assay type: biochemical; details: for IC50: 25° C., Z-Gly-Pro-AMC substrate; for inhibition at 1 µM: read-out: hFAP inhibition % at 1 μM
T1 construct: purchased R&D systems
T1 sequence (Q12884 1-760): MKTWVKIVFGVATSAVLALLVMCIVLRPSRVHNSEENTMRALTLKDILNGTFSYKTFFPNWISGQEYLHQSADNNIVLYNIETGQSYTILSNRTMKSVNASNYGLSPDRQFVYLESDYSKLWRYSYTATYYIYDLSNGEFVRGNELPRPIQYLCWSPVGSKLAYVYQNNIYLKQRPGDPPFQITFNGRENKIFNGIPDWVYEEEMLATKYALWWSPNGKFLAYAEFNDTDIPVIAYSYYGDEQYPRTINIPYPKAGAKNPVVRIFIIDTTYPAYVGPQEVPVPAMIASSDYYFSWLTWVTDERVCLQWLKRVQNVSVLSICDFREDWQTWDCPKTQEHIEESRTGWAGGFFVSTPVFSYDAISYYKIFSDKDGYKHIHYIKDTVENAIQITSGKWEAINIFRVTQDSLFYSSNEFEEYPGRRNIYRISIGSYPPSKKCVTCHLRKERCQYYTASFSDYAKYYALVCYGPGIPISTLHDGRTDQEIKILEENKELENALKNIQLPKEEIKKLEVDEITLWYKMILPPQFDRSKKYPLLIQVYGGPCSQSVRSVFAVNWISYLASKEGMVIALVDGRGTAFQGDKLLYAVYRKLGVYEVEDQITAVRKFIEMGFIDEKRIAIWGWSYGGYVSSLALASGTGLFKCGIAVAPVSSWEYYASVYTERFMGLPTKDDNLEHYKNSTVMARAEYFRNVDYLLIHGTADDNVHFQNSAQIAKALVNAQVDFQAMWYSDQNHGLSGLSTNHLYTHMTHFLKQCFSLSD
How it was run: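 Recombinant human FAP, 10 ng per reaction, in 50 mM Tris pH 7.5 with 1 M NaCl and 1 mg/ml BSA at 25° C; substrate Z-Gly-Pro-AMC, ≤0.1% DMSO. AMC fluorescence read at ex 380/em 460 nm; % signal-rate decrease vs no-inhibitor control, 8-point curves fitted to a four-parameter logistic for IC50.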

DPP4 = DPP4 (Homo sapiens, UniProt P27487); experiment: DPP4 inhibition, fluorogenic substrate H-Gly-Pro-AMC; assay type: biochemical; parameters: purchased R&D Systems; details: for inhibition at 1 µM: read-out: hDPP4 inhibition % at 1 μM
DPP4, sequence (P27487 whole entry): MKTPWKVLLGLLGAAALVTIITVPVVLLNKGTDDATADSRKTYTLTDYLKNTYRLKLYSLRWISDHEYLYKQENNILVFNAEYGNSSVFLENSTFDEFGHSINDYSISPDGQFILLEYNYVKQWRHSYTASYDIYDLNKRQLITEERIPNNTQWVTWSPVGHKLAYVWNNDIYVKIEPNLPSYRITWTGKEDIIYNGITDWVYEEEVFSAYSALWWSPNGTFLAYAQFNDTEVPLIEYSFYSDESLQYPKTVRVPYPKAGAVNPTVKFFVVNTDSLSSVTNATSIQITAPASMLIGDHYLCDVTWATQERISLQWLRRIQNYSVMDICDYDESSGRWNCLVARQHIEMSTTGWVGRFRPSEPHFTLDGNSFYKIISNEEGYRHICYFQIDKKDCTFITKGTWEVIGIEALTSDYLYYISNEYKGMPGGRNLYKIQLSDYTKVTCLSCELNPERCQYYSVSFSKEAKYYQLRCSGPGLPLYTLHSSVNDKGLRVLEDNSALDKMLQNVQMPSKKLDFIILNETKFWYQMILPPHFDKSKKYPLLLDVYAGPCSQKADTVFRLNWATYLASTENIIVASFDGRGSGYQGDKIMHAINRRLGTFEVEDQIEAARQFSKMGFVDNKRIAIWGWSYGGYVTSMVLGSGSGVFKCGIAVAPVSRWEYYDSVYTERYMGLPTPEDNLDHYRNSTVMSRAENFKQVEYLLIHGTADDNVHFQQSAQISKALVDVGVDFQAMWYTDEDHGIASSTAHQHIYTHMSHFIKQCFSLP
Description: The compounds according to the present technology were evaluated in terms of the inhibitory effect on the activity of dipeptidyl peptidases including FAP by using a substrate producing fluorescent substances upon enzymatic decomposition. The test was conducted at 25° C. to get a final reaction volume of 100 μL in a 96 black well plate. […] Briefly, the test compounds were dissolved in dimethyl sulfoxide (DMSO) at a concentration of 20 mM and then subjected to serial dilution, thereby creating an 8 point curve. As for the control group, a 6 point curve created by serial dilution of Talabostat in the same buffer solution was used. Fluorescence intensity was measured using a microplate reader (Flexstation3, Molecular Devices) under the wavelength condition exciting at 380 nm and reading the emission at 460 nm. The inhibitory effect of the test compounds was measured as a decrease (%) in the signal rate as compared to the control group without any inhibitor. Data was fixed to a logistic model with four variables and IC50 value was calculated using GraphPad Prism program. As for recombinant human DPP4 (R&D Systems), 25 mM tris (pH 8.0) buffer as a buffer solution and H-Gly-Pro-AMC (Bachem) as a substrate were used. As for recombinant human DPP7 (R&D Systems), 25 mM MES (pH 6.0) buffer as a buffer solution and Lys-Pro-AMC (Bachem) as a substrate were used. As for recombinant human DPP8 (PBS Bioscience), as a buffer solution, a 10 mM tris (pH 7.4) buffer comprising 10 mM of magnesium chloride and 0.05% of Tween 20, and Z-Ala-Pro-AMC (BPS Bioscience) as a substrate were used. As for recombinant human DPP9 (R&D Systems), a 25 mM tris (pH 8.0) buffer as a buffer solution and H-Gly-Pro-AMC (Bachem) as a substrate were used. As for recombinant human PREP (R&D System), as a buffer solution, a 25 mM tris (pH 7.5) buffer comprising 250 mM sodium chloride and 2.5 mM DTT (Dithiolthreitol), and Z-Gly-Pro-AMC (Bachem) as a substrate were used. The evaluation was made by using 10 ng of DPP4, PDD7, and PREP, 20 ng of DPP8, and 50 ng of DPP9 based on the final reaction. In the evaluation of DPP4, the test compounds were subjected to serial dilution in a buffer under the condition containing up to 0.1% of DMSO. In the evaluation of DPP7, DPP8, DPP9, and PREP, the test compounds were subjected to serial dilution in each buffer under the condition containing up to 0.5% of DMSO.

SMILES	IC50 (Recombinant human FAP) [µM]	inhibition at 1 µM (DPP4) [%]	hDPP4 inhibition % at 1 μM (DPP4)	inhibition at 1 µM (Recombinant human FAP) [%]
N#C[C@@H]1CCCN1C(=O)CN1CC[C@H](Oc2nccc3scc(Br)c23)C1 [Example 70, (S)-1-(2-((S)-3-((3-bromothieno[3,2-c]pyridin-4-yl)oxy)pyrrolidin-1-yl)acetyl)pyrrolidine-2-carbonitrile]	0.0319	22.6	–	–
N#C[C@@H]1CCCN1C(=O)CN1CC[C@H](Oc2ccc(Cl)c3ccccc23)C1 [Example 71, (S)-1-(2-((S)-3-((4-chloronaphthalen-1-yl)oxy)pyrrolidin-1-yl)acetyl)pyrrolidine-2-carbonitrile]	0.0426	–	No inhibition**	–
N#C[C@@H]1CCCN1C(=O)CN1CC[C@H](Oc2ccccc2-c2cc[nH]n2)C1 [Example 72, (S)-1-(2-((S)-3-(2-(1H-pyrazol-3-yl)phenoxy)pyrrolidin-1-yl)acetyl)pyrrolidine-2-carbonitrile]	0.101	0.8	–	–
N#C[C@@H]1CCCN1C(=O)CN1CC[C@H](Oc2cccc3c(Cl)ncnc23)C1 [Example 73, (S)-1-(2-((S)-3-((4-chloroquinazolin-8-yl)oxy)pyrrolidin-1-yl)acetyl)pyrrolidine-2-carbonitrile]	–	1.2	–	97.1
N#C[C@@H]1CCCN1C(=O)CN1CC[C@H](Oc2ccc3ncnc(Cl)c3c2)C1 [Example 74, (S)-1-(2-((S)-3-((4-chloroquinazolin-6-yl)oxy)pyrrolidin-1-yl)acetyl)pyrrolidine-2-carbonitrile]	–	–	No inhibition**	92.3
N#C[C@@H]1CCCN1C(=O)CN1CC[C@H](Oc2cccc3c2CCC(=O)N3)C1 [Example 76, (S)-1-(2-((S)-3-((2-oxo-1,2,3,4-tetrahydroquinolin-5-yl)oxy)pyrrolidin-1-yl)acetyl)pyrrolidine-2-carbonitrile]	0.0536	–	No inhibition**	–
N#C[C@@H]1CCCN1C(=O)CN1CC[C@H](Oc2ccc3c(c2)CCC(=O)N3)C1 [Example 77, (S)-1-(2-((S)-3-((2-oxo-1,2,3,4-tetrahydroquinolin-6-yl)oxy)pyrrolidin-1-yl)acetyl)pyrrolidine-2-carbonitrile]	0.0823	0.4	–	–
Cc1ccc2cccc(O[C@H]3CCN(CC(=O)N4CCC[C@H]4C#N)C3)c2n1 [Example 78, (S)-1-(2-((S)-3-((2-methylquinolin-8-yl)oxy)pyrrolidin-1-yl)acetyl)pyrrolidine-2-carbonitrile]	0.0225	–	No inhibition**	–
N#C[C@@H]1CCCN1C(=O)CN1CC[C@H](Oc2ccnc3cc(Cl)ccc23)C1 [Example 79, (S)-1-(2-((S)-3-((7-chloroquinolin-4-yl)oxy)pyrrolidin-1-yl)acetyl)pyrrolidine-2-carbonitrile]	0.0179	4.6	–	–
N#C[C@@H]1CCCN1C(=O)CN1CC[C@H](Oc2ccnc3cc(Br)ccc23)C1 [Example 80, (S)-1-(2-((S)-3-((7-bromoquinolin-4-yl)oxy)pyrrolidin-1-yl)acetyl)pyrrolidine-2-carbonitrile]	0.0205	5.1	–	–
N#C[C@@H]1CCCN1C(=O)CN1CC[C@H](Oc2ccnc3c(F)c(F)ccc23)C1 [Example 85, (S)-1-(2-((S)-3-((7,8-difluoroquinolin-4-yl)oxy)pyrrolidin-1-yl)acetyl)pyrrolidine-2-carbonitrile]	0.0199	5.9	–	–
COC(=O)C1Cc2ccc(O[C@H]3CCN(CC(=O)N4CCC[C@H]4C#N)C3)cc2O1 (stereo partly drawn) [Example 86, Methyl 6-(((S)-1-(2-((S)-2-cyanopyrrolidin-1-yl)-2-oxoethyl)pyrrolidin-3-yl)oxy)-2,3-dihydrobenzofuran-2-carboxylate]	–	6.8	–	70.7
N#C[C@@H]1CCCN1C(=O)CN1CC[C@H](Oc2cc(OCc3ccccc3)ccn2)C1 [Example 93, (S)-1-(2-((S)-3-((4-(benzyloxy)pyridin-2-yl)oxy)pyrrolidin-1-yl)acetyl)pyrrolidine-2-carbonitrile]	0.0696	11.6	–	–
N#C[C@@H]1CCCN1C(=O)CN1CC[C@H](Oc2ccnc3cc(C(F)(F)F)ccc23)C1 [Example 94, (S)-1-(2-((S)-3-((7-(trifluoromethyl)quinolin-4-yl)oxy)pyrrolidin-1-yl)acetyl)pyrrolidine-2-carbonitrile]	0.0633	6.9	–	–

Other lines, results leading:

IC50 (Recombinant human FAP) [µM]	inhibition at 1 µM (DPP4) [%]	hDPP4 inhibition % at 1 μM (DPP4)	inhibition at 1 µM (Recombinant human FAP) [%]	SMILES
–	6.5	–	72.6	N#C[C@@H]1CCCN1C(=O)CN1CC[C@H](Oc2cccc(-c3ccccc3)c2)C1 [Example 82, (S)-1-(2-((S)-3-([1,1′-biphenyl]-3-yloxy)pyrrolidin-1-yl)acetyl)pyrrolidine-2-carbonitrile]
–	6.3	–	68.1	N#C[C@@H]1CCCN1C(=O)CN1CC[C@H](Oc2ccc(-c3ccccc3)cc2)C1 [Example 83, (S)-1-(2-((S)-3-([1,1′-biphenyl]-4-yloxy)pyrrolidin-1-yl)acetyl)pyrrolidine-2-carbonitrile]
–	6.9	–	51.9	N#C[C@@H]1CCCN1C(=O)CN1CC[C@H](Oc2ccc(Oc3ccccc3)cc2)C1 [Example 87, (S)-1-(2-((S)-3-(4-phenoxyphenoxy)pyrrolidin-1-yl)acetyl)pyrrolidine-2-carbonitrile]
–	6.1	–	57.9	N#C[C@@H]1CCCN1C(=O)CN1CC[C@H](Oc2cccc(Oc3ccccc3)c2)C1 [Example 88, (S)-1-(2-((S)-3-(3-phenoxyphenoxy)pyrrolidin-1-yl)acetyl)pyrrolidine-2-carbonitrile]
–	7.9	–	56.8	N#C[C@@H]1CCCN1C(=O)CN1CC[C@H](Oc2ccc(Cc3ccccc3)cc2)C1 [Example 89, (S)-1-(2-((S)-3-(4-benzylphenoxy)pyrrolidin-1-yl)acetyl)pyrrolidine-2-carbonitrile]
–	7.7	–	52.9	N#C[C@@H]1CCCN1C(=O)CN1CC[C@H](Oc2ccccc2Cc2ccccc2)C1 [Example 90, (S)-1-(2-((S)-3-(2-benzylphenoxy)pyrrolidin-1-yl)acetyl)pyrrolidine-2-carbonitrile]
–	9.1	–	59.2	N#C[C@@H]1CCCN1C(=O)CN1CC[C@H](Oc2cccc(C(=O)c3ccccc3)c2)C1 [Example 91, (S)-1-(2-((S)-3-(3-benzoylphenoxy)pyrrolidin-1-yl)acetyl)pyrrolidine-2-carbonitrile]
–	10.2	–	56.4	N#C[C@@H]1CCCN1C(=O)CN1CC[C@H](Oc2ccc(C(=O)c3ccccc3)cc2)C1 [Example 92, (S)-1-(2-((S)-3-(4-benzoylphenoxy)pyrrolidin-1-yl)acetyl)pyrrolidine-2-carbonitrile]
